Values quoted from earlier work, collected in patent US20030036641A1, “Methods for homology-driven reassembly of nucleic acid sequences” (priority 2001, published 2003).

Tested on: E. coli TG1
Conditions: E. coli TG1 containing pGJ103 (pI258 ars operon in pUC19), LB ampicillin agar plates

## sodium arsenate
  MIC (minimum inhibitory concentration): 4 µg/mL
